The numbers were not newly measured in US12367980B2, “Methods for predicting treatment response in cancers” (Cancer Research Technology Limited, priority 2020, dated 2025), which cites them from elsewhere.

The data set deals with ovarian cancer patients. The note with it: for response rate to Doxorubicin monotherapy: expected rate from clinical trials.

Read-outs that look alike come from different tables or passages of the source.

For the compound `COc1cccc2c1C(=O)c1c(O)c3c(c(O)c1C2=O)C[C@@](O)(C(=O)CO)C[C@@H]3O[C@H]1C[C@H](N)[C@H](O)[C@H](C)O1` [Doxorubicin, doxorubicin], the “response rate to Doxorubicin monotherapy” value is 18% (patients resistant to platinum chemotherapy) and 28% (platinum sensitive patients (Gordon et al., 2001)). The “response rate to doxorubicin” value is 18% (platinum resistant ovarian cancer patients) and 52% (platinum sensitive ovarian cancer patients).
